≈ marks a conversion by molar mass, not a printed value. Where “and” joins values, the source holds several entries; their conditions need not be identical. Equal values may be shown once. Read-outs that look alike come from different tables or passages of the source.
Key:
[1] = test system: M. pneumoniae wild type (laboratory strain M129); assay: Mpn growth inhibition in 96-well plates (growth index A450/A560), wild type strain; format: cell-based, Mycoplasma pneumoniae; conditions: for MIC: Mycoplasmoides pneumoniae
Protocol: (§1) A series dilution of each compound in Mycoplasma growth medium was added to Mpn cultures in 96-well plates. The plates were sealed and incubated at 37°C. Mpn growth was monitored by using growth index value e.g. the ratio of absorbance at 450 nm and 560 nm of the culture medium. Thirty nucleoside and nucleobase analogs and a nucleoside transporter inhibitor were included, and two Mpn strains, wild type and a thyA mutant (lacking TS activity), were used.
(§2) Nucleoside and nucleobase analogs were dissolved in dimethyl sulfoxide (DMSO) as stock solutions and diluted with Mpn culture medium to the desired concentration immediately prior to use.
(§3) Mpn laboratory strain M129 wild type and a thyA mutant strain [31] were used in this study. Mpn was cultured at 37°C in a CO2 incubator using 75 cm^2 tissue culture flasks containing 50 ml Hayflick’s medium, and harvested at day 4 when the medium color change was observed. The cells were harvested and the pellet was resuspended in 6 ml fresh medium and the cfu/ml was determined by serial dilution (10-fold) and plating on broth agar plate. Colonies was counted and cfu/ml was calculated.
(§4) Inhibition studies were performed in 96-well plates containing 200 μl Mpn culture (approximately 10^6 cfu ml^-1) in Hayflick’s medium and 200 μl each compound in series dilutions (2-fold) with the growth medium, with three to four replicas. The plates were sealed with clear adhesive sheets and incubated at 37°C incubator. Absorbance ratio at 450 nm and 560 nm was used as Mpn growth index, which was measured daily, and by visual detection for at least 8 days, as previously described. […] The MICs (minimal inhibitory concentration required to inhibit Mpn growth to 90%) were determined as the lowest concentration at which the growth index was ≈ 10% of the control values (at the time when the control culture medium color turned yellow), essentially as described.

[2] = test system: M. pneumoniae thyA mutant (lacking TS activity); assay: microbe, parasite or virus in culture; format: cell-based, Mycoplasma pneumoniae; conditions: Mycoplasmoides pneumoniae, read-out: thyA mutant MIC
Protocol: as §1, §2, §3, §4

[3] = molecular target: T1, human HPRT (Homo sapiens, UniProt P00492); assay: HPRT inhibition, DE-81 filter paper assay; format: biochemical
T1 construct: made in house
T1 sequence (P00492 1-218): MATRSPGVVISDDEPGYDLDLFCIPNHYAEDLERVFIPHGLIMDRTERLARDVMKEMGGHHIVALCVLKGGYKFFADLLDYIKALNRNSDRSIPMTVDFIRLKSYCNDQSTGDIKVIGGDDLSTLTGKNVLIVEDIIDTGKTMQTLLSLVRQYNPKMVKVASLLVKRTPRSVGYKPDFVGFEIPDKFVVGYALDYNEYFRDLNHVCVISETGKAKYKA
Protocol: (§5) The reaction was initiated by addition of the enzyme, and at 0, 5, 10, and 15 min intervals, 10 μl reaction mixture was withdrawn and spotted onto the DE81 filter paper and dried. The unreacted substrate was washed and the products were eluted and counted in a liquid scintillation counter. With [^3H]-Gua as substrate the reaction (in a total of 25 μl) was initiated by addition of the enzyme (10 μl), incubated at 37°C for 2 min, stopped by addition of 1 M HCl (10 μl), and placed immediately on ice. After neutralization, 15 μl of the mixture was spotted onto the DE81-filter paper. The filters were then washed, and the products were eluted and counted by liquid scintillation.

[4] = molecular target: T2, Mpn HPRT (Mycoplasmoides pneumoniae, UniProt P75119); assay: biochemical
T2 sequence (P75119 1-175): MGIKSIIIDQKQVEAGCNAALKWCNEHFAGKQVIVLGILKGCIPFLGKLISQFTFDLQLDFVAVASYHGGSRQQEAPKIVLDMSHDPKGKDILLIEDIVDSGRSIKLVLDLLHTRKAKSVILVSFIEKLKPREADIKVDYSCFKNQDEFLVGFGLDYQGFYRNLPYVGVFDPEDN
Protocol: as §5

[5] = test system: Mpn wild type cells; assay: Uptake and metabolism of tritium labelled natural nucleoside and nucleobases in the presence of analogs; format: cell-based, Mycoplasma pneumoniae; conditions: 10 μM analog, 70 hours; for [3H]-Ade Total uptake / [3H]-Gua Total uptake / [3H]-Hx Total uptake / [3H]-Ura Total uptake / [3H]-dT Total uptake: 37°C, radioactivity in cells / total added; for [3H]-Ade Incorporation / [3H]-Gua Incorporation / [3H]-Hx Incorporation / [3H]-Ura Incorporation / [3H]-dT Incorporation: acid insoluble fraction / total in cells
Protocol: The cells were harvested and analyzed essentially as described. Analogs used were dipyridamole, 6-thioguanine (6-TG), trifluorothymidine (TFT), gemcitabine (dFdC) and 5-fluorodeoxyuridine (5FdU). Total uptake is the percent of radioactivity recovered in the cells divided by total radioactivity added to the growth medium. Percent of acid insoluble (radioactivity found in DNA and RNA) was also calculated. These experiments were done more than three times and data are given as mean ± SD.

[6] = 10 μM [3H]-guanine, read-out: IC50 Human HPRT, substrate guanine
[7] = IC50 Human HPRT, substrate hypoxanthine, 10 μM [3H]-hypoxanthine
[8] = substrate guanine, 10 μM [3H]-guanine
[9] = substrate hypoxanthine, 10 μM [3H]-hypoxanthine
[10] = strain not specified, 90% growth inhibition

SMILES: Sc1ncnc2nc[nH]c12 [6-mercaptopurine (6-MP), 6-mercaptopurine]
- MIC ([1]; read-out: Wild type MIC): > 500 µg/mL
- Inhibition of Mpn growth (in words) ([1]; strain not specified): did not inhibit Mpn growth
- MIC [2]: > 500 µg/mL
- IC50 [3, 6]: 25.1 ± 3 µM
- IC50 [3, 7]: 22.5 ± 3.6 µM
- IC50 [4, 8]: 282 ± 21 µM
- IC50 [4, 9]: 89.7 ± 14.5 µM

SMILES: CN(C)[C@@H]1C(O)=C(C(N)=O)C(=O)[C@@]2(O)C(O)=C3C(=O)c4c(O)cccc4[C@@](C)(O)[C@H]3C[C@@H]12 [tetracycline]
- Mpn growth in control cultures (in words) ([1]; 2 μg/ml tetracycline, up to 8 days): no growth
- MIC ([1]; strain not specified, 90% growth inhibition, read-out: MIC (Mpn growth)): 0.1 µg/mL (≈ 0.225 µM)

SMILES: O=c1[nH]cc(F)c(=O)[nH]1 [5-fluorouracil]
- MIC ([1]; read-out: Wild type MIC): 31.2 µg/mL (≈ 240 µM)
- MIC [2]: 31.2 µg/mL (≈ 240 µM)

SMILES: Nc1nc2c(ncn2COCCO)c(=O)[nH]1 [Acyclovir]
- MIC ([1]; read-out: Wild type MIC): 15.6 µg/mL (≈ 69.3 µM)
- MIC [2]: 15.6 µg/mL (≈ 69.3 µM)

SMILES: Nc1ccn(C[C@@H](CO)OCP(=O)(O)O)c(=O)n1 [Cidofovir]
- MIC ([1]; read-out: Wild type MIC): 31.2 µg/mL (≈ 112 µM)
- MIC [2]: 31.2 µg/mL (≈ 112 µM)

SMILES: CCc1nc(N)nc(N)c1-c1ccc(Cl)cc1 [Pyrimethamine]
- MIC ([1]; read-out: Wild type MIC): > 500 µg/mL
- MIC [2]: > 500 µg/mL

SMILES: Nc1ncn([C@@H]2O[C@H](CO)[C@@H](O)[C@H]2O)c(=O)n1 [5-azacytidine]
- MIC ([1]; read-out: Wild type MIC): > 500 µg/mL
- MIC [2]: > 500 µg/mL

SMILES: CC(=O)CCCCn1c(=O)c2c(ncn2C)n(C)c1=O [Pentoxifylline]
- MIC ([1]; read-out: Wild type MIC): 62.5 µg/mL (≈ 225 µM)
- Inhibition of wild type Mpn growth (in words) [1]: inhibited wild type Mpn
- MIC [2]: > 500 µg/mL

SMILES: Nc1nc(F)nc2c1ncn2[C@@H]1O[C@H](COP(=O)(O)O)[C@@H](O)[C@@H]1O [Fludarabine phosphate]
- MIC ([1]; read-out: Wild type MIC): > 500 µg/mL
- MIC [2]: > 500 µg/mL

SMILES: OCCN(CCO)c1nc(N2CCCCC2)c2nc(N(CCO)CCO)nc(N3CCCCC3)c2n1 [Dipyridamole]
- MIC ([1]; read-out: Wild type MIC): 1.9 µg/mL (≈ 3.77 µM)
- MIC (Mpn growth) [1, 10]: approximately 2 μg ml^-1
- MIC [2]: 1.9 µg/mL (≈ 3.77 µM)
- [3H]-Ade Total uptake [5]: 0.67±0.1%
- [3H]-Gua Total uptake [5]: 0.09±0.002%
- [3H]-Hx Total uptake [5]: 0.008± 0.001%
- [3H]-Ura Total uptake [5]: 0.20±0.003%
- [3H]-dT Total uptake [5]: 7.2±1.1%
- [3H]-Ade Incorporation [5]: 47±1%
- [3H]-Gua Incorporation [5]: 56±6%
- [3H]-Hx Incorporation [5]: 44±3%
- [3H]-Ura Incorporation [5]: 38±6%
- [3H]-dT Incorporation [5]: 97.0±1.3%

SMILES: Cc1cn([C@H]2C[C@H](N=[N+]=[N-])[C@@H](CO)O2)c(=O)[nH]c1=O [Zidovudine]
- MIC ([1]; read-out: Wild type MIC): 7.8 µg/mL (≈ 29.2 µM)
- MIC [2]: 7.8 µg/mL (≈ 29.2 µM)

SMILES: Nc1ccn([C@@H]2CS[C@H](CO)O2)c(=O)n1 [Lamivudine]
- MIC ([1]; read-out: Wild type MIC): > 500 µg/mL
- MIC [2]: > 500 µg/mL

SMILES: O=c1[nH]c(=O)n([C@H]2C[C@H](O)[C@@H](CO)O2)cc1I [5-iododeoxyuridine]
- MIC ([1]; read-out: Wild type MIC): 15.6 µg/mL (≈ 44.1 µM)
- Inhibition of wild type Mpn growth (in words) [1]: only inhibited the wild type Mpn growth
- MIC [2]: > 500 µg/mL

SMILES: Nc1nc2nc[nH]c2c(=S)[nH]1 [6-thioguanine (6-TG), 6-thioguanine]
- MIC ([1]; read-out: Wild type MIC): 0.2 µg/mL (≈ 1.2 µM)
- MIC (Mpn growth) [1, 10]: 0.20 µg/mL (≈ 1.2 µM)
- MIC [2]: 0.2 µg/mL (≈ 1.2 µM)
- [3H]-Ade Total uptake [5]: 0.66±0.1%
- [3H]-Gua Total uptake [5]: 0.080±0.002%
- [3H]-Hx Total uptake [5]: 0.005 ± 0.0004%
- [3H]-Ura Total uptake [5]: 0.21±0.003%
- [3H]-dT Total uptake [5]: 7.9±0.6%
- [3H]-Ade Incorporation [5]: 46±3%
- [3H]-Gua Incorporation [5]: 67±3%
- [3H]-Hx Incorporation [5]: 43±6%
- [3H]-Ura Incorporation [5]: 39±8%
- [3H]-dT Incorporation [5]: 97.4±0.7%
- IC50 [3, 6]: 39.8 ± 4 µM
- IC50 [3, 7]: 20.5 ± 6.5 µM
- IC50 [4, 8]: 3.2 µM and 3.16 µM
- IC50 [4, 9]: 3.5 ± 0.5 µM

SMILES: Nc1ccn([C@@H]2O[C@H](CO)[C@@H](O)C2(F)F)c(=O)n1 [Gemcitabine (dFdC), Gemcitabine]
- MIC ([1]; read-out: MIC (Mpn growth), strain not specified, 90% growth inhibition): ~2.5 µg/mL (≈ 9.5 µM)
- MIC ([1]; read-out: Wild type MIC): 2.4 µg/mL (≈ 9.12 µM)
- MIC (Mpn growth) [1, 10]: approximately 2 μg ml^-1
- MIC [2]: 2.4 µg/mL (≈ 9.12 µM)
- [3H]-Ade Total uptake [5]: 0.41±0.08%
- [3H]-Gua Total uptake [5]: 0.10±0.02%
- [3H]-Hx Total uptake [5]: 0.009±0.0002%
- [3H]-Ura Total uptake [5]: 0.12±0.001%
- [3H]-dT Total uptake [5]: 5.2±0.4%
- [3H]-Ade Incorporation [5]: 39±8%
- [3H]-Gua Incorporation [5]: 90±6%
- [3H]-Hx Incorporation [5]: 67±7%
- [3H]-Ura Incorporation [5]: 26±6%
- [3H]-dT Incorporation [5]: 96.7±1.1%
